The text below walks through data of patent publication US20260207616A1, “COMBINATION THERAPIES FOR TREATMENT OF HEARING DISORDERS” (GATEWAY BIOTECHNOLOGY, INC., priority 2023, published 2026).

Molecules are shown by their SMILES.

This experiment has as its system tinnitus positive mice. The experiment in a line: go/no-go trials, sound-based avoidance detection (SBAD) in noise-induced tinnitus mice. The experiment is classed as in vivo. The following applies: intraperitoneal injection; for dosage reached before the agent alone was effective in treating the animals tinnitus: single agent. The protocol: With reference to FIGS. 1A-1D, single drug treatment of tinnitus is evaluated using the go/no-go methodology further elaborated upon in Example 4. With reference to FIGS. 2A-2B, multi drug treatment of tinnitus is evaluated using the go/no-go methodology further elaborated upon in Example 4. […] Using a shuttle box divided into two compartments, mice were trained to cross from side to side with sound cues in the “Go” trials and remain still in the absence of sound in the “No-Go” trials for 15 days. […] The sound cues were randomly played as white noise or narrow-band noise at 8,10,12.5,16, and 29 kHz with sound intensities randomly at 75, 80, or 85 dB. […] Additionally, a hurdle was added on training 11 to reinforce the training. After the 15th training day, mice were tested for 3 days to obtain a baseline score to be compared after noise exposure, as well as retraining for 3 days. Following the successful completion of training so that mice reached a high percentage of success in the trials, the mice were exposed to a noise-induced trauma for tinnitus over a two day period. To ensure that the mice still have their hearing, one ear was protected with an ear plug, while the other ear was exposed to the noise. The mice were placed in a sound booth where they were exposed to 120 dB broadband noise at 4-25 kHz for two hours. Following the noise exposure, the mice were housed for one month, and then tested to see if they have developed tinnitus. In these testing periods, the mice were tested for three days in the shuttle boxes, where they underwent the Go and No-Go trials, however in the No-Go trials the mice were not shocked, as it is expected that mice with tinnitus would cross compartments in the absence of a sound cue. The mice were continued to be shocked in the Go trials in order to ensure that they have retained their hearing and can hear the sound cues. […] To insure there is a significant difference in the No-Go trial scores, chi-square tests were completed comparing the post-noise exposure tests to the baseline tests. However, if tinnitus is not present in the mice, tests were done after waiting one more month, and another if needed. […] The Go and No-Go scores for the tests were compared using chi-square tests in Social Science Statistics and JASP. The chi-square tests were used first to determine whether mice were tinnitus positive by comparing the No-Go baseline scores pre-noise exposure to the No-Go post-noise exposure scores, with a significant difference (p-value<0.05) in at least 2 of the tests indicating a tinnitus positive mouse. Following this conclusion, the mice were tested accordingly to determine if their No-Go scores could be improved by different drug doses and combinations. […] The No-Go scores at 3 months post-noise exposure were compared to baselines to assess for tinnitus. Mice had significant decreases on all 3 days of testing. This indicates these mice had tinnitus. One or more mice is a control animal. In looking at the Go scores for the tinnitus animals when tested with the specified drugs, mice had significant decreases in their scores when. […] In contrast, a lack of change in the No-Go scores indicates the first and/or second agent was not effective in treating the animal's tinnitus, and decrease in the score may indicate that the animal's tinnitus was worsened.

Take `CCOC(=O)C1=C(COCCN)NC(C)=C(C(=O)OC)C1c1ccccc1Cl` (centres unmarked) [AML, amlodipine]: the “correct percentage result in the no-go trial” value (AML 5 mg/kg) is recorded as ~90% and the “correct percentage result in the no-go trial” value (AML 8 mg/kg) is listed as ~95%.
Consider `NC(=O)N1c2ccccc2C=Cc2ccccc21` [CBZ, carbamazepine], for which the “correct percentage result in the no-go trial” value was “less than 70%” (CBZ 5 mg/kg, within a margin of error of the saline dosed mice) and “less than 80%” (CBZ 8 mg/kg).
Turning to `COCCOC(=O)C1=C(C)NC(C)=C(C(=O)OC(C)C)C1c1cccc([N+](=O)[O-])c1` (centres unmarked) [NMDP, nimodipine], the “dosage reached before the agent alone was effective in treating the animals tinnitus” value is given as “about 30 mg/kg”. For the same molecule, where the note is “NMDP 30 mg/kg”, the “correct percentage result in the no-go trial” value is given as ~95%. In addition, the “correct percentage result in the no-go trial” value (NMDP 50 mg/kg) is on record as ~95%.
As for `COc1ccc2cc1Oc1ccc(cc1)C[C@H]1c3cc(c(OC)cc3CCN1C)Oc1c(OC)c(OC)cc3c1[C@H](C2)N(C)CC3` [TET, tetrandrine], the “dosage reached before the agent alone was effective in treating the animals tinnitus” value is recorded as “about 30 mg/kg”. Further, the “correct percentage result in the no-go trial” value (TET 60 mg/kg) was ~90%. Further, the “correct percentage result in the no-go trial” value (TET 90 mg/kg) was ~95%.
For the molecule `CCC1(C)CC(=O)NC1=O` (centres unmarked) [ESM, ethosuximide], the “correct percentage result in the no-go trial” value (ESM 300 mg/kg) is given as ~70%.
